Experimental data reported in ChEMBL document CHEMBL1124634, “Synthesis and antirhinovirus activity of 6-(dimethylamino)-2-(trifluoromethyl)-9-(substituted benzyl)-9H-purines” (J Med Chem, 1989).

Key:
Human rhinovirus sp. [1] = experiment: Antiviral activity against rhinoviral 2 serotype in a plaque inhibition assay using monolayers of M-HeLa cells; format: functional, organism-based
Human rhinovirus sp. [2] = experiment: Antiviral activity against rhinoviral 30 serotype in a plaque inhibition assay using monolayers of M-HeLa cells; format: functional, organism-based
Human rhinovirus sp. [3] = experiment: Antiviral activity against rhinoviral 8 serotype in a plaque inhibition assay using monolayers of M-HeLa cells; format: functional, organism-based
Human rhinovirus sp. [4] = experiment: Antiviral activity against rhinoviral 16 serotype in a plaque inhibition assay using monolayers of M-HeLa cells; format: functional, organism-based
Human rhinovirus sp. [5] = experiment: Antiviral activity against rhinoviral 12 serotype in a plaque inhibition assay using monolayers of M-HeLa cells; format: functional, organism-based
Human rhinovirus sp. [6] = experiment: Antiviral activity against rhinoviral-1A serotype in a plaque inhibition assay using monolayers of M-HeLa cells; format: functional, organism-based
Human rhinovirus sp. [7] = experiment: Antiviral activity against rhinoviral-1B serotype in a plaque inhibition assay using monolayers of M-HeLa cells; format: functional, organism-based
Human rhinovirus sp. [8] = experiment: Percent inhibitory activity at 8 uM against rhinoviral 13 serotype in a plaque inhibition assay using monolayers of M-HeLa cells; format: functional
Human rhinovirus sp. [9] = experiment: Percent inhibitory activity at 8 uM against rhinoviral 14 serotype in a plaque inhibition assay using monolayers of M-HeLa cells; format: functional
Human rhinovirus sp. [10] = experiment: Percent inhibitory activity at 8 uM against rhinoviral 15 serotype in a plaque inhibition assay using monolayers of M-HeLa cells; format: functional
[11] = Percent inhibitory activity at 8 uM against rhinoviral 18 serotype in a plaque inhibition assay using monolayers of M-HeLa cells; format: functional, Homo sapiens
Human rhinovirus sp. [12] = experiment: Percent inhibitory activity at 8 uM against rhinoviral 19s erotype in a plaque inhibition assay using monolayers of M-HeLa cells; format: functional
Human rhinovirus sp. [13] = experiment: Percent inhibitory activity at 8 uM against rhinoviral 21 serotype in a plaque inhibition assay using monolayers of M-HeLa cells; format: functional
Human rhinovirus sp. [14] = experiment: Percent inhibitory activity at 8 uM against rhinoviral 29 serotype in a plaque inhibition assay using monolayers of M-HeLa cells; format: functional
Human rhinovirus sp. [15] = experiment: Percent inhibitory activity at 8 uM against rhinoviral 31 serotype in a plaque inhibition assay using monolayers of M-HeLa cells; format: functional
Human rhinovirus sp. [16] = experiment: Percent inhibitory activity at 8 uM against rhinoviral 3 serotype in a plaque inhibition assay using monolayers of M-HeLa cells; format: functional
Human rhinovirus sp. [17] = experiment: Percent inhibitory activity at 8 uM against rhinoviral 4 serotype in a plaque inhibition assay using monolayers of M-HeLa cells; format: functional
Human rhinovirus sp. [18] = experiment: Antiviral activity against rhinoviral 5 serotype in a plaque inhibition assay using monolayers of M-HeLa cells; format: functional, organism-based
Human rhinovirus sp. [19] = experiment: Antiviral activity against rhinoviral 9 serotype in a plaque inhibition assay using monolayers of M-HeLa cells; format: functional, organism-based
Human rhinovirus sp. [20] = experiment: Antiviral activity against rhinoviral 29 serotype in a plaque inhibition assay using monolayers of M-HeLa cells; format: functional, organism-based
Human rhinovirus sp. [21] = experiment: Antiviral activity against rhinoviral 4 serotype in a plaque inhibition assay using monolayers of M-HeLa cells; format: functional, organism-based
Human rhinovirus sp. [22] = experiment: Antiviral activity against rhinoviral 14 serotype in a plaque inhibition assay using monolayers of M-HeLa cells; format: functional, organism-based
Human rhinovirus sp. [23] = experiment: Antiviral activity against rhinoviral 15 serotype in a plaque inhibition assay using monolayers of M-HeLa cells; format: functional, organism-based
Human rhinovirus sp. [24] = experiment: Antiviral activity against rhinoviral-19 serotype in a plaque inhibition assay using monolayers of M-HeLa cells; format: functional, organism-based
Human rhinovirus sp. [25] = experiment: Antiviral activity against rhinoviral 21 serotype in a plaque inhibition assay using monolayers of M-HeLa cells; format: functional, organism-based
Human rhinovirus sp. [26] = experiment: Percent inhibitory activity at 8 uM against rhinoviral 30 serotype in a plaque inhibition assay using monolayers of M-HeLa cells; format: functional
Human rhinovirus sp. [27] = experiment: Antiviral activity against rhinoviral 31 serotype in a plaque inhibition assay using monolayers of M-HeLa cells; format: functional, organism-based
Human rhinovirus sp. [28] = experiment: Antiviral activity against rhinoviral 18 serotype in a plaque inhibition assay using monolayers of M-HeLa cells; format: functional, organism-based
Human rhinovirus sp. [29] = experiment: Percent inhibitory activity at 8 uM against rhinoviral 5 serotype in a plaque inhibition assay using monolayers of M-HeLa cells; format: functional
[30] = Percent inhibitory activity at 8 uM against rhinoviral 2 serotype in a plaque inhibition assay using monolayers of M-HeLa cells; format: functional, Homo sapiens
Human rhinovirus sp. [31] = experiment: Antiviral activity against rhinoviral 19 serotype in a plaque inhibition assay using monolayers of M-HeLa cells; format: functional, organism-based
[32] = Antiviral activity against rhinoviral 13 serotype in a plaque inhibition assay using monolayers of M-HeLa cells; format: functional, cell-based; conditions: Homo sapiens
Human rhinovirus sp. [33] = experiment: Antiviral activity against rhinoviral 3 serotype in a plaque inhibition assay using monolayers of M-HeLa cells; format: functional, organism-based
Human rhinovirus sp. [34] = experiment: Antiviral activity against rhinoviral-18 serotype in a plaque inhibition assay using monolayers of M-HeLa cells; format: functional, organism-based
[35] = Percent inhibitory activity at 8 uM against rhinoviral 8 serotype in a plaque inhibition assay using monolayers of M-HeLa cells; format: functional, Homo sapiens
[36] = Percent inhibitory activity at 10 uM against rhinoviral 5 serotype in a plaque inhibition assay using monolayers of M-HeLa cells; format: functional, Homo sapiens
[37] = Percent inhibitory activity at 4 uM against rhinoviral-1A serotype in a plaque inhibition assay using monolayers of M-HeLa cells; format: functional, Homo sapiens
[38] = Percent inhibitory activity at 4 uM against rhinoviral 2 serotype in a plaque inhibition assay using monolayers of M-HeLa cells; format: functional, Homo sapiens

| Structure (SMILES) | IC50 (Human rhinovirus sp. [1]) | IC50 (Human rhinovirus sp. [2]) | IC50 (Human rhinovirus sp. [3]) | IC50 (Human rhinovirus sp. [4]) | IC50 (Human rhinovirus sp. [5]) | IC50 (Human rhinovirus sp. [6]) | IC50 (Human rhinovirus sp. [7]) | IC50 (Human rhinovirus sp. [18]) | IC50 (Human rhinovirus sp. [19]) | IC50 (Human rhinovirus sp. [20]) | IC50 (Human rhinovirus sp. [21]) | IC50 (Human rhinovirus sp. [22]) | IC50 (Human rhinovirus sp. [23]) | IC50 (Human rhinovirus sp. [28]) | Inhibition (Human rhinovirus sp. [8]) | Inhibition (Human rhinovirus sp. [10]) | Inhibition (Human rhinovirus sp. [12]) | Inhibition (Human rhinovirus sp. [13]) | Inhibition (Human rhinovirus sp. [15]) | Inhibition (Human rhinovirus sp. [16]) | also measured |
| --- | --- | --- | --- | --- | --- | --- | --- | --- | --- | --- | --- | --- | --- | --- | --- | --- | --- | --- | --- | --- | --- |
| CN(C)c1nc(C(F)(F)F)nc2c1ncn2Cc1ccc(Cl)cc1Cl | 6.9 µM | 11 µM | 8.5 µM | 0.85 µM | 11 µM | 0.58 µM | 0.12 µM | > 8 µM | 0.93 µM |  |  |  |  |  | 20% | 10% | 40% | 30% | 28% | 17% | Inhibition (Human rhinovirus sp. [9]): 35%; Inhibition [11]: 32 µM; Inhibition (Human rhinovirus sp. [14]): 15%; Inhibition (Human rhinovirus sp. [17]): 25% |
| Cc1cc(Cn2cnc3c(N(C)C)nc(C(F)(F)F)nc32)ccc1Cl | 5.2 µM |  | > 8 µM | 0.84 µM | 3.3 µM | 1.4 µM | 0.12 µM | > 8 µM | 1 µM | 7 µM | 7.6 µM | 8 µM | 6.1 µM |  | 13% |  |  |  |  | 44% | IC50 (Human rhinovirus sp. [24]): 7.7 µM; Inhibition [11]: 28 µM; IC50 (Human rhinovirus sp. [25]): 6.3 µM; Inhibition (Human rhinovirus sp. [26]): 31%; IC50 (Human rhinovirus sp. [27]): 9 µM |
| Cc1ccc(Cn2cnc3c(N(C)C)nc(C(F)(F)F)nc32)cc1C | 5 µM | 8.1 µM | 5.1 µM | 0.78 µM | 4 µM | 1.7 µM | 0.17 µM | > 8 µM | 0.65 µM | 5 µM | 6 µM | 6.6 µM | 2 µM | 8.2 µM |  |  |  | 16% |  | 39% | IC50 (Human rhinovirus sp. [31]): 7.1 µM; IC50 [32]: > 8 µM; IC50 (Human rhinovirus sp. [27]): 13 µM |
| Cc1ccccc1Cn1cnc2c(N(C)C)nc(C(F)(F)F)nc21 |  | 9 µM |  | 1.9 µM | 6.5 µM | 8 µM | 0.29 µM |  | 1.9 µM | 6.2 µM |  |  |  |  | 33% | 14% | 19% | 18% | 47% |  | IC50 (Human rhinovirus sp. [33]): 7.5 µM; IC50 (Human rhinovirus sp. [34]): 7.7 µM; Inhibition (Human rhinovirus sp. [9]): 31%; Inhibition (Human rhinovirus sp. [17]): 22%; Inhibition (Human rhinovirus sp. [29]): 40%; Inhibition [35]: 44% |
| CN(C)c1nc(C(F)(F)F)nc2c1ncn2Cc1ccc([N+](=O)[O-])cc1 | 8.3 µM |  | 8.1 µM | 1.5 µM | 8 µM |  | 0.07 µM |  | 5.6 µM | 10 µM | 4.1 µM | 8.6 µM |  | 5.9 µM | 13% | 31% |  | 28% | 37% | 43% | IC50 (Human rhinovirus sp. [31]): 8.8 µM; Inhibition [36]: 32%; Inhibition [37]: 38 µM; Inhibition (Human rhinovirus sp. [26]): 28% |

Second part, led by results:

| IC50 (Human rhinovirus sp. [1]) | IC50 (Human rhinovirus sp. [2]) | IC50 (Human rhinovirus sp. [3]) | IC50 (Human rhinovirus sp. [4]) | IC50 (Human rhinovirus sp. [5]) | IC50 (Human rhinovirus sp. [6]) | IC50 (Human rhinovirus sp. [7]) | IC50 (Human rhinovirus sp. [18]) | IC50 (Human rhinovirus sp. [19]) | IC50 (Human rhinovirus sp. [20]) | IC50 (Human rhinovirus sp. [21]) | IC50 (Human rhinovirus sp. [22]) | IC50 (Human rhinovirus sp. [23]) | IC50 (Human rhinovirus sp. [28]) | Structure (SMILES) | Inhibition (Human rhinovirus sp. [8]) | Inhibition (Human rhinovirus sp. [10]) | Inhibition (Human rhinovirus sp. [12]) | Inhibition (Human rhinovirus sp. [13]) | Inhibition (Human rhinovirus sp. [15]) | Inhibition (Human rhinovirus sp. [16]) | also measured |
| --- | --- | --- | --- | --- | --- | --- | --- | --- | --- | --- | --- | --- | --- | --- | --- | --- | --- | --- | --- | --- | --- |
|  | 9 µM | 8 µM | 1.3 µM | 8 µM | 1.3 µM | 0.05 µM |  | 0.87 µM | 4 µM | 3.8 µM | 7.1 µM | 8.7 µM | 8.9 µM | CN(C)c1nc(C(F)(F)F)nc2c1ncn2Cc1ccc(F)cc1 | 42% |  | 22% | 34% | 47% | 35% | Inhibition (Human rhinovirus sp. [29]): 11%; Inhibition [30]: 27% |
|  |  | > 8 µM | 1.2 µM | 5.2 µM | 0.91 µM | 0.11 µM | > 8 µM | 2.2 µM | 7.2 µM | 6 µM | 7 µM | 4.2 µM | 6.6 µM | CN(C)c1nc(C(F)(F)F)nc2c1ncn2Cc1ccc(C(F)(F)F)cc1 | 22% |  |  |  |  | 44% | IC50 (Human rhinovirus sp. [31]): 5.2 µM; Inhibition [38]: 23 µM; IC50 (Human rhinovirus sp. [25]): 8.2 µM; Inhibition (Human rhinovirus sp. [26]): 40%; IC50 (Human rhinovirus sp. [27]): 6 µM |
